Source: ChEMBL document CHEMBL1129804, “First synthesis and cytotoxic activity of novel docetaxel analogs modified at the C18-position” (1997)
Values after ≈ are worked out from the molar mass of the structure shown.

Legend:
Format in all cases: functional
P388 = assay: Compound was tested for growth inhibitory activity after 72 hr of continuous exposure against mouse leukemia P388; conditions: P388, 72 h
PC-6 [1] = assay: Compound was tested for growth inhibitory activity after 72 hr of continuous exposure against human lung cancer cell line PC-6; conditions: PC-6, 72 h
PC-6 [2] = assay: Compound was tested for growth inhibitory activity after 72 hr of continuous exposure against vincristine resistant cancer cell line PC-6/VCR; conditions: Homo sapiens, PC-6, 72 h

| Structure (SMILES) | GI50 (P388) [µg/mL] | GI50 (PC-6 [1]) [µg/mL] | GI50 (PC-6 [2]) [µg/mL] |
| --- | --- | --- | --- |
| CC(=O)OCC1=C2[C@@H](O)C(=O)[C@@]3(C)[C@H]([C@H](OC(=O)c4ccccc4)[C@](O)(C[C@@H]1OC(=O)[C@H](O)[C@@H](NC(=O)OC(C)(C)C)c1ccccc1)C2(C)C)[C@]1(OC(C)=O)CO[C@@H]1C[C@@H]3O | 0.181 (≈ 0.209 µM) | 0.163 (≈ 0.188 µM) | > 1 |
| CC(=O)O[C@H]1C(=O)[C@@]2(C)[C@H]([C@H](OC(=O)c3ccccc3)[C@]3(O)C[C@H](OC(=O)[C@H](O)[C@@H](NC(=O)OC(C)(C)C)c4ccccc4)C(CN=[N+]=[N-])=C1C3(C)C)[C@]1(OC(C)=O)CO[C@@H]1C[C@@H]2O | 0.0401 (≈ 0.045 µM) | 0.0524 (≈ 0.0588 µM) | 0.39 (≈ 0.438 µM) |
| CC(=O)O[C@@]12CO[C@@H]1C[C@H](O)[C@@]1(C)C(=O)[C@H](O)C3=C(CC#N)[C@@H](OC(=O)[C@H](O)[C@@H](NC(=O)OC(C)(C)C)c4ccccc4)C[C@@](O)([C@@H](OC(=O)c4ccccc4)[C@H]21)C3(C)C | 0.00837 (≈ 0.01 µM) | 0.00481 (≈ 0.00578 µM) | 0.754 (≈ 0.905 µM) |
| CC(=O)O[C@@]12CO[C@@H]1C[C@H](O)[C@@]1(C)C(=O)[C@H](O)C3=C(CN4CCOCC4)[C@@H](OC(=O)[C@H](O)[C@@H](NC(=O)OC(C)(C)C)c4ccccc4)C[C@@](O)([C@@H](OC(=O)c4ccccc4)[C@H]21)C3(C)C | > 1 | > 1 | > 1 |
| CCC1=C2[C@@H](OC(C)=O)C(=O)[C@@]3(C)[C@H]([C@H](OC(=O)c4ccccc4)[C@](O)(C[C@@H]1OC(=O)[C@H](O)[C@@H](NC(=O)OC(C)(C)C)c1ccccc1)C2(C)C)[C@]1(OC(C)=O)CO[C@@H]1C[C@@H]3O | 0.00745 (≈ 0.00862 µM) | 0.0103 (≈ 0.0119 µM) | 0.167 (≈ 0.193 µM) |
| CC(=O)O[C@H]1C(=O)[C@@]2(C)[C@H]([C@H](OC(=O)c3ccccc3)[C@]3(O)C[C@H](OC(=O)[C@H](O)[C@@H](NC(=O)OC(C)(C)C)c4ccccc4)C(C=O)=C1C3(C)C)[C@]1(OC(C)=O)CO[C@@H]1C[C@@H]2O | > 1 | 0.699 (≈ 0.809 µM) | > 1 |
| CC(=O)NCC1=C2[C@@H](OC(C)=O)C(=O)[C@@]3(C)[C@H]([C@H](OC(=O)c4ccccc4)[C@](O)(C[C@@H]1OC(=O)[C@H](O)[C@@H](NC(=O)OC(C)(C)C)c1ccccc1)C2(C)C)[C@]1(OC(C)=O)CO[C@@H]1C[C@@H]3O | 0.393 (≈ 0.433 µM) | 0.131 (≈ 0.144 µM) | > 1 |
| CC(=O)O[C@@]12CO[C@@H]1C[C@H](O)[C@@]1(C)C(=O)[C@H](O)C3=C(C)[C@@H](OC(=O)[C@H](O)[C@@H](NC(=O)OC(C)(C)C)c4ccccc4)C[C@@](O)([C@@H](OC(=O)c4ccccc4)[C@H]21)C3(C)C.O.O.O [DOCETAXEL] | 0.00162 | 0.00116 | 0.173 |
